# Active and inactive are the calls of the source. The rule behind the calls is not given here.
# Test system: GENE-TOX genotoxicity assays, various organisms and cells
# Assay: GENE-TOX mutagenicity studies
# Conditions: for call: Assay Type: In vivo carcinogenicity studies
# [1] = Species/Cell Type: Bacillus subtilis (H17 vs M45), Assay Type: Rec-assay, spot test, DNA effects (bacterial DNA repair), Assay Code: REW+, Evaluation Type: Evaluation A (Pre-1980)
# [2] = Species/Cell Type: Drosophila melanogaster, Assay Type: Sex-linked recessive lethal gene mutation, Assay Code: SRL-, Evaluation Type: Evaluation A (Pre-1980)
# [3] = Species/Cell Type: Escherichia coli WP2 UVRA, Assay Type: Tryptophan reverse gene mutation, Assay Code: WPU-*, Activation: With metabolic activation, Evaluation Type: Evaluation A (Pre-1980)
# [4] = Species/Cell Type: Human diploid fibroblasts, Assay Type: Unscheduled DNA synthesis (UDS) in vitro, DNA effects, Assay Code: UDH-, Evaluation Type: Evaluation A (Pre-1980)
# [5] = Species/Cell Type: Human lymphocytes, Assay Type: Sister-chromatid exchange (SCE) in vitro, Assay Code: SCL+D, Dose Response: With dose response, Evaluation Type: Evaluation B (Post-1980)
# [6] = Species/Cell Type: Human, Assay Type: Sister-chromatid exchange (SCE) in vitro, Assay Code: SC1+D, Dose Response: With dose response, Evaluation Type: Evaluation B (Post-1980)
# [7] = Species/Cell Type: Nonhuman, Assay Code: CCGT, Evaluation Type: Evaluation A (Pre-1980)
# [8] = Species/Cell Type: Saccharomyces cerevisiae, Assay Type: Mitotic recombination or gene conversion, Assay Code: YEH-, Evaluation Type: Evaluation A (Pre-1980)
# [9] = Species/Cell Type: Salmonella typhimurium (one or more of the five standard strains: TA98, TA100, TA1535, TA1537, and TA1538), Assay Type: Histidine reverse gene mutation, Ames assay, Assay Code: SAL-, Evaluation Type: Evaluation A (Pre-1980)
# [10] = Species/Cell Type: Salmonella typhimurium (one or more of the five standard strains: TA98, TA100, TA1535, TA1537, and TA1538), Assay Type: Histidine reverse gene mutation, Ames assay, Assay Code: SALT, Evaluation Type: Evaluation A (Pre-1980)
# [11] = Species/Cell Type: Nonhuman, Assay Code: CCG+, Evaluation Type: Evaluation A (Pre-1980)
# [12] = Species/Cell Type: Bacillus subtilis (H17 vs M45), Assay Type: Rec-assay, spot test, DNA effects (bacterial DNA repair), Assay Code: REWT, Evaluation Type: Evaluation A (Pre-1980)
# [13] = Species/Cell Type: Mammalian polychromatic erythrocytes, Assay Type: Micronucleus test, chromosome aberrations, Assay Code: MNTT, Evaluation Type: Evaluation B (Post-1980)
# [14] = Species/Cell Type: Mouse, Sex: Male, Assay Type: Sperm morphology, Assay Code: SPI-, Evaluation Type: Evaluation A (Pre-1980)
# [15] = Species/Cell Type: Rodents, Sex: Male, Assay Type: Dominant lethal test, Assay Code: DLT-, Evaluation Type: Evaluation A (Pre-1980)
# [16] = Species/Cell Type: Drosophila melanogaster, Assay Type: Sex-linked recessive lethal gene mutation, Assay Code: SRLT, Evaluation Type: Evaluation A (Pre-1980)
# [17] = Species/Cell Type: Escherichia coli polA (W3119 vs P3478), Assay Type: Rec-assay, DNA effects (bacterial DNA repair), Assay Code: RE1T, Evaluation Type: Evaluation A (Pre-1980)
structure (smiles),measurement,setting,value
O=C(O)COc1ccc(Cl)cc1Cl,mutagenic call,"Species/Cell Type: Allium cepa, Assay Type: Chromosome aberrations, Assay Code: ALC+, Evaluation Type: Evaluation A (Pre-1980)",active; positive
same,mutagenic call,[1],active; positive
same,mutagenic call,"Species/Cell Type: Chinese hamster lung (V79) cells, Assay Type: Forward gene mutation at the HPRT or ouabain locus, Assay Code: V79+, Evaluation Type: Evaluation A (Pre-1980)",active; positive
same,mutagenic call,"Species/Cell Type: Drosophila melanogaster, Assay Type: Aneuploidy, sex chromosome gain, chromosome aberrations, Assay Code: DAG-M-F, Evaluation Type: Evaluation A (Pre-1980)",inactive; negative
same,mutagenic call,"Species/Cell Type: Drosophila melanogaster, Assay Type: Aneuploidy, whole sex chromosome loss, chromosome aberrations, Assay Code: DAC-M-F, Evaluation Type: Evaluation A (Pre-1980)",inactive; negative
same,mutagenic call,[2],inactive; negative
same,mutagenic call,[3],inactive; negative
same,mutagenic call,"Species/Cell Type: Escherichia coli polA (W3119 vs P3478), Assay Type: Rec-assay, DNA effects (bacterial DNA repair), Assay Code: RE1+, Evaluation Type: Evaluation A (Pre-1980)",active; positive
same,mutagenic call,[4],inactive; negative
same,mutagenic call,"Species/Cell Type: Human lymphocytes or leukocytes, Assay Type: Chromosome aberrations in vitro, Assay Code: CY7+, Evaluation Type: Evaluation A (Pre-1980)",active; positive
same,mutagenic call,[5],active; positive
same,mutagenic call,[6],active; positive
same,mutagenic call,"Species/Cell Type: Mammalian polychromatic erythrocytes, Assay Type: Micronucleus test, chromosome aberrations, Assay Code: MNTT, Evaluation Type: Evaluation A (Pre-1980)",no conclusion
same,mutagenic call,"Species/Cell Type: Nonhuman bone marrow, Assay Type: Chromosome aberrations, in vivo, Assay Code: CY#+, Evaluation Type: Evaluation A (Pre-1980)",active; positive
same,call,[7],no conclusion
same,mutagenic call,"Species/Cell Type: Saccharomyces cerevisiae, Assay Type: Mitotic recombination or gene conversion, Assay Code: YEC+, Evaluation Type: Evaluation A (Pre-1980)",active; positive
same,mutagenic call,"Species/Cell Type: Saccharomyces cerevisiae, Assay Type: Mitotic recombination or gene conversion, Assay Code: YEH+, Evaluation Type: Evaluation A (Pre-1980)",active; positive
same,mutagenic call,[8],inactive; negative
same,mutagenic call,[9],inactive; negative
same,mutagenic call,[10],no conclusion
same,mutagenic call,"Species/Cell Type: Salmonella typhimurium, Saccharomyces cerevisiae, Assay Type: Forward and reverse gene mutation, mitotic recombination and gene conversion, DNA effects, host-mediated assay, Assay Code: HM3-, Evaluation Type: Evaluation A (Pre-1980)",inactive; negative
same,mutagenic call,"Species/Cell Type: Vicia faba, Assay Type: Chromosome aberrations, Assay Code: VIC+, Evaluation Type: Evaluation A (Pre-1980)",active; positive
[O]=[Cd],call,[11],active; positive
Cn1sc(Cl)cc1=O,mutagenic call,"Species/Cell Type: Mammalian polychromatic erythrocytes, Assay Type: Micronucleus test, chromosome aberrations, Assay Code: MNT-, Evaluation Type: Evaluation B (Post-1980)",inactive; negative
O=C1c2ccccc2C(=O)C1c1ccc2cc(S(=O)(=O)O)cc(S(=O)(=O)O)c2n1,mutagenic call,[12],no conclusion
O=[N+]([O-])c1cc(Cl)cc(Sc2cc(Cl)cc([N+](=O)[O-])c2O)c1O,mutagenic call,[13],no conclusion
CCN1CC[C@@H]2[C@@H](c3ccc(C)cc3)c3cc(C)ccc3[C@@H]2C1,mutagenic call,[14],inactive; negative
same,mutagenic call,[15],inactive; negative
same,mutagenic call,[10],no conclusion
CCCCOC(=O)C=[N+]=[N-],mutagenic call,"Species/Cell Type: Arabidopsis species, Assay Type: Gene mutation, Assay Code: ARM+, Evaluation Type: Evaluation A (Pre-1980)",active; positive
Nc1ccc2nc3ccc(N)cc3[n+](-c3ccccc3)c2c1,mutagenic call,[16],no conclusion
Nc1ccc2ccccc2c1N=Nc1ccccc1,mutagenic call,[10],no conclusion
O=[N+]([O-])c1nccn1CC(O)CF (stereo unspecified),mutagenic call,"Species/Cell Type: Salmonella typhimurium (one or more of the five standard strains: TA98, TA100, TA1535, TA1537, and TA1538), Assay Type: Histidine reverse gene mutation, Ames assay, Assay Code: SAL+, Evaluation Type: Evaluation A (Pre-1980)",active; positive
CNC(=O)O/N=C(\C)SC,mutagenic call,[12],no conclusion
same,mutagenic call,[2],inactive; negative
same,mutagenic call,[3],inactive; negative
same,mutagenic call,[17],no conclusion
same,mutagenic call,[4],inactive; negative
same,mutagenic call,[8],inactive; negative
same,mutagenic call,[10],no conclusion
CN(C)c1ccc(N=Nc2ccccc2)cc1,mutagenic call,"Species/Cell Type: Bacillus subtilis (H17 vs M45T), Assay Type: Rec-assay, spot test, DNA effects (bacterial DNA repair), Assay Code: REXT, Evaluation Type: Evaluation A (Pre-1980)",no conclusion
same,mutagenic call,[16],no conclusion
same,mutagenic call,"Species/Cell Type: Escherichia coli polA (W3110 vs P3478), Assay Type: Rec-assay, DNA effects (bacterial DNA repair), Assay Code: RE2-, Evaluation Type: Evaluation A (Pre-1980)",inactive; negative
same,mutagenic call,[17],no conclusion
same,mutagenic call,"Species/Cell Type: Fischer rat embryo (RLV/1706) cells, Assay Type: Cell transformation, viral enhanced, Assay Code: CTR+, Evaluation Type: Evaluation A (Pre-1980)",active; positive
same,mutagenic call,"Species/Cell Type: Human diploid fibroblasts, Assay Type: Unscheduled DNA synthesis (UDS) in vitro, DNA effects, Assay Code: UDHT, Evaluation Type: Evaluation A (Pre-1980)",no conclusion
same,mutagenic call,"Species/Cell Type: Mammalian polychromatic erythrocytes, Assay Type: Micronucleus test, chromosome aberrations, Assay Code: MNT+, Evaluation Type: Evaluation A (Pre-1980)",active; positive
same,mutagenic call,"Species/Cell Type: Mouse (BALB/c-3T3) cells, Assay Type: Cell transformation, Assay Code: CTB-, Evaluation Type: Evaluation A (Pre-1980)",inactive; negative
same,mutagenic call,[14],inactive; negative
same,call,[11],active; positive
same,mutagenic call,"Species/Cell Type: Nonhuman, Assay Type: Sister-chromatid exchange (SCE) in vitro, Assay Code: SC2+D*, Activation: With metabolic activation, Dose Response: With dose response, Evaluation Type: Evaluation B (Post-1980)",active; positive
same,mutagenic call,"Species/Cell Type: Nonhuman, Assay Type: Sister-chromatid exchange (SCE) in vivo, Assay Code: SC3+, Evaluation Type: Evaluation B (Post-1980)",active; positive
same,mutagenic call,[8],inactive; negative
same,mutagenic call,"Species/Cell Type: Salmonella typhimurium (one or more of the five standard strains: TA98, TA100, TA1535, TA1537, and TA1538), Assay Type: Histidine reverse gene mutation, Ames assay, Assay Code: SAL+*, Activation: With metabolic activation, Evaluation Type: Evaluation A (Pre-1980)",active; positive
same,mutagenic call,"Species/Cell Type: Salmonella typhimurium, Assay Type: Forward and reverse gene mutation, body fluid assay, Assay Code: BFU+, Evaluation Type: Evaluation A (Pre-1980)",active; positive
same,mutagenic call,"Species/Cell Type: Syrian hamster embryo (SHE) cells, Assay Type: Cell transformation, clonal assay, Assay Code: CTCT, Evaluation Type: Evaluation A (Pre-1980)",no conclusion
O=C1C=C2C(=CCOC2O)O1 (stereo unspecified),mutagenic call,[1],active; positive
same,mutagenic call,[5],active; positive
same,mutagenic call,[6],active; positive
same,mutagenic call,"Species/Cell Type: Nonhuman, Assay Type: Chromosome aberrations in vitro, Assay Code: CY&+, Evaluation Type: Evaluation A (Pre-1980)",active; positive
same,call,[7],no conclusion
same,mutagenic call,"Species/Cell Type: Nonhuman, Assay Type: Sister-chromatid exchange (SCE) in vitro, Assay Code: SC2-, Evaluation Type: Evaluation B (Post-1980)",inactive; negative
same,mutagenic call,[15],inactive; negative
same,mutagenic call,"Species/Cell Type: Saccharomyces cerevisiae, Assay Type: Mitotic recombination or gene conversion, Assay Code: YEH+/-*, Activation: With metabolic activation, Evaluation Type: Evaluation A (Pre-1980)","inactive; positive without activation, negative with activation"
same,mutagenic call,[9],inactive; negative
Oc1ccccc1,mutagenic call,"Species/Cell Type: Human lymphocytes, Assay Type: Sister-chromatid exchange (SCE) in vitro, Assay Code: SCL+, Evaluation Type: Evaluation B (Post-1980)",active; positive
same,mutagenic call,"Species/Cell Type: Human, Assay Type: Sister-chromatid exchange (SCE) in vitro, Assay Code: SC1+, Evaluation Type: Evaluation B (Post-1980)",active; positive
same,mutagenic call,[13],no conclusion
same,mutagenic call,"Species/Cell Type: Neurospora crassa, Assay Type: Reverse gene mutation, Assay Code: NER-, Evaluation Type: Evaluation A (Pre-1980)",inactive; negative
CN(CCO)c1nc(Nc2ccccc2)nc(Nc2ccc(/C=C/c3ccc(Nc4nc(Nc5ccccc5)nc(N(C)CCO)n4)cc3S(=O)(=O)O)c(S(=O)(=O)O)c2)n1,mutagenic call,[15],inactive; negative
same,mutagenic call,[10],no conclusion
